Source: paper PMC3359661, “FK228 Analogues Induce Fetal Hemoglobin in Human Erythroid Progenitors” (Anemia, 2012)

Tested on: γ-globin promoter activity in KU812-γF/βR stable lines
Assay: KU812 dual-luciferase reporter stable lines (μLCRβprRluc AγprFluc), γ-globin promoter activity
Format: cell-based, human
Settings: 48 hr; for Fold change (γ/γ + 2β): untreated normalized to one
Text: KU812 stable cell lines were created by co-transfecting wild-type KU812 cells with pEGFP-NI (G418 selectable marker) and theμLCRβ prRluc ^A γ prFluc dual-reporter a kind gifts from Dr. George Stamatoyannopoulos (University of Washington). […] Likewise, 1.4 kb of human Aγ-globin promoter was inserted upstream of firefly luciferase to create ^A γ prFluc. The μLCR (locus control region), Pβ prRluc, and ^A γ prFluc fragments were subsequently cloned into the mammalian vector, pRL-null.
After 72 hr, G418 was added at a concentration of […] for 3 days then maintained under selection pressure indefinitely at a concentration of […]. KU812 stable lines were treated with the various drugs at the same concentrations described above. FK228 and analogues were screened at concentrations between 1–1000 nM for 48 hr and cell toxicity was monitored by 2% Trypan blue exclusion. The effect of drug treatments on γ-globin and β-globin promoter activity was monitored by luciferase assay.
Luciferase activity was monitored under the different experimental conditions using the Dual Luciferase Assay Reporter System (Promega, Madison, WI). The activity of firefly luciferase represents γ-globin promoter activity (γF), while the renilla luciferase is the read-out for β-globin promoter activity (βR). The β-globin promoter was strategically cloned between the LCR and γ-globin promoter to increase β expression, while simultaneously increasing the sensitivity of detection of γ-globin gene inducers.
After drug treatments, KU812 stable cells were washed with 1X phosphate buffered saline and lysed in 1X Passive Lysis Buffer for 15 min, then protein extracts were added to the Luciferase Assay Reagent II and firefly luciferase activity quantified in a Turner Designs TD-20/20 luminometer (Sunnyvale, CA). To measure βR activity, Stop & Glo Reagents was added to measure the renilla luciferase activity. Total protein was determined by Bradford assay on a Beckman DU 640 spectrophotometer (Chaska, MN) and luciferase activity was corrected for total protein.
Subsequently, three independent dual-luciferase reporter KU812 stable cell lines were established to analyze the ability FK228 analogues to induce γ-globin promoter activity without an effect on β-globin transcription. […] Since the firefly luciferase gene (γF) has approximately […] luminescence than the renilla gene (βR), the renilla activity was multiplied by two to adjust for the difference in luminescence yielding the γ/γ+2β final measurement. The FK228 analogues were examined at concentrations ranging from 1–1000 nM in the three stable lines. After 48-hour treatments, cells were harvested and protein isolated for luciferase activity using the Dual Luciferase Reporter Assay.

In the case of FK228, the “γ/γ + 2β Mean” value (Line 1, firefly (γ) / renilla (β) luciferase corrected for total protein, mean, conc: Cys 10 mM, Hemin 50 μM, SAHA 2000 nM, FK228 1.5 nM, 1127Ox 1000 nM, JMA1 1.5 nM, JMA2 1.0 nM, JMA12 1000 nM, JMA26 500 nM, JMA33 1000 nM, JMA112 100 nM, untreated 0.0402) is reported as 0.1197, the “Fold change (γ/γ + 2β)” value (Line 1, concentrations as in E1) is reported as 2.975 and the “γ/γ + 2β Mean” value (Line 2, concentrations as in E1, untreated 0.1573) is reported as 0.6167. The “Fold change (γ/γ + 2β)” value (Line 2, concentrations as in E1) was 3.929, the “γ/γ + 2β Mean” value (Line 3, concentrations as in E1, untreated 0.0721) was 0.1583 and the “Fold change (γ/γ + 2β)” value (Line 3, concentrations as in E1) was 2.194.
